Data: patent publication US20260245700A1, “METHOD FOR GIVING A RECOMMENDATION ON THE DIETARY ENERGY OF A POULTRY DIET” (Evonik Operations GmbH, priority 2023, published 2026)
Like-named read-outs stand apart in the source and are kept apart here.

Columns and labels:
[1] = test system: broilers; assay: Trials in which GAA compensates dietary energy reduction (energy-sparing value); format: in vivo
From the text: Reduction of dietary energy content and adding GAA to the feed restored broiler performance, which supports this conclusion (Malins et al., 2017; Mousavi S. N., Afsar A., Lotfollahian H. (2013) Effects of guanidinoacetic acid supplementation to broiler diets with varying energy contents, Journal of Applied Poultry Research, Volume 22, Issue 1, 2013, Pages 47-54, ISSN 1056-6171, https://doi.org/10.3382/japr.2012-00575; Heger, J., J. Zelenka, V. Machander, C. Cruz, M. Lestak, and D. Hampel. (2014) “Effects of Guanidinoacetic Acid Supplementation to Broiler Diets with Varying Energy Content.” Acta Universitatis Agriculturae Silviculturae Mendelianae Brunensis 62: 477-485. doi:10.11118/actaun201462030477; Abudabos, A. M., F. Saleh, A. Lemme, and H. A. H. Zakaria (2014) “The Relationship between Guanidino Acetic Acid and Metabolisable Energy Level of Diets on Performance of Broiler Chickens.” Italian Journal of Animal Science 13: 548-556. doi:10.4081/ijas.2014.3269).
The energy reduction level as well as the GAA supplementation rate was not always the same in trails in which GAA was used to compensate for energy reduction. In most trials dietary energy level of a standard diet was reduced by 50 kcal/kg feed and 0.06% GAA was supplemented to maintain bird performance. This would be equivalent to an energy-sparing value of 83.333 kcal/kg of GAA. However, considering all 20 identified independent trials in which GAA was used to compensate for dietary energy reduction, a wide range of energy-sparing values from 41.667 to 568.333 kcal/kg was tested. […] It can be predicted that an energy-sparing value of 163.889 kcal/kg GAA maintains BWG of the birds, whereas there is still a small improvement for FCR. For FCR, it was found out that even an energy-sparing value of 197.222 kcal/kg GAA maintains performance.

[2] = test system: broilers; settings: GAA supplemented in broiler diets, compared to non-supplemented diets, asymptotic; cited from earlier work
[3] = test system: broilers; settings: linear regression, relative scale, control = 100%, cited from earlier work
[4] = test system: broiler chickens; settings: cited from earlier work
[5] = test system: broilers; settings: reduced dietary energy content plus GAA added to the feed; cited from earlier work
[6] = test system: broilers; settings: EFSA 2009; Tossenberger et al. 2016; cited from earlier work
[7] = Vranes et al. 2017; relatively stable during pelleting or extruding; cited from earlier work

Question: Which “energy-sparing value that maintains performance for FCR” value ([1]; from 20 independent trials) does the source give for `N=C(N)NCC(=O)O` [GAA, Guanidinoacetic acid] here?
Answer: 197.222 kcal/kg GAA

Question: What about the “energy GAA can compensate (energy-sparing value)” value ([1]; overall, 20 independent trials) of the same compound?
Answer: more than 83.333 kcal/kg

Question: What about the “energy-sparing value that maintains BWG” value ([1]; predicted from 20 independent trials, still a small improvement for FCR) of the same compound?
Answer: 163.889 kcal/kg GAA

Question: And the “increase of muscle CREA, maximum” value [2]?
Answer: ≤ 29%

Question: What about the FCR improvement ([3]; GAA dose 0.6 g/kg) of the same compound?
Answer: 4.5 points

Question: And the FCR improvement ([3]; GAA dose 1.2 g/kg)?
Answer: 8.8 points

Question: What about the replacement efficiency ([4]; 1.7 g/kg L-ARG compensated by 1.2 g/kg GAA (Dilger et al. 2013)) of the same compound?
Answer: 142%

Question: What about the “circulatory ARG levels” value ([4]; birds fed ARG-deficient diets (DeGroot et al. 2018)) of the same compound?
Answer: increased

Question: And the L-ARG compensated ([4]; by 1.2 g/kg GAA (Dilger et al. 2013))?
Answer: 1.7 g/kg

Question: And the “supplemental L-ARG needed to reach a given feed conversion ratio” value ([4]; very ARG-deficient diet, at 1.2 g/kg supplemental GAA (Dilger et al. 2013))?
Answer: 2.1 g/kg

Question: What about the ARG-sparing effect ([4]; very deficient ARG diets (Dilger et al. 2013)) of the same compound?
Answer: 143%

Question: And the broiler performance [5]?
Answer: restored

Question: And the bioavailability [6]?
Answer: high

Question: And the thermal stability [7]?
Answer: high
